Assay results from patent US8895585B2, “Nicotinamide derivative or salt thereof” (FUJIFILM Corporation, priority 2010, dated 2014).
Read-outs that look alike come from different tables or passages of the source.

Legend:
[1] = target: T1, glutathione S-transferase (GST)-fused full-length human Syk protein (Homo sapiens, UniProt P43405); test: Syk enzyme assay; format: biochemical; details: Syk enzyme assay, Test Example 1; read-out: IC50 of Syk-inhibitory activity
T1 construct: (GST)-fused full-length human Syk protein; GST (glutathione S-transferase); purchased Carna Biosciences
Method in brief: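 GST-tagged full-length human Syk (baculovirus) preincubated with compound 15 min at room temperature (pH 7.0, 10 mM MgCl2), then reacted 40 min with 0.4 μM biotinylated peptide substrate and 27 μM ATP (final). Phosphorylation read by HTRF (615/665 nm) after EDTA stop; IC50 reported.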

THP-1 cells = test: TNFα generation assay; format: cell-based, human; details: Table 22, read-out: IC50 in TNFα generation assay
Method in brief: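 THP-1 cells differentiated to macrophage-like cells with 10 ng/ml IFN-γ for 2 days, preincubated with compound 30 min at room temperature, then cultured 7 h on plates coated with human IgG (10 μg/ml). Secreted TNFα measured by ELISA or AlphaLISA.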

[2] = Homo sapiens, THP-1, THP-1 cells

SMILES	IC50 [1] [nM]	IC50 (THP-1 cells; THP-1 cells) [nM]	IC50 (THP-1 cells; [2]) [nM]
NC(=O)c1cc(F)c(N[C@@H]2CCCC[C@@H]2N)nc1Nc1cncc(-c2ccccc2F)c1 [Example 006-166, 6-(((1R,2S)-2-aminocyclohexyl)amino)-5-fluoro-2-((5-(2-fluorophenyl)pyridin-3-yl)amino)fluoronicotinamide]	< 10	< 65	
NC(=O)c1cc(F)c(N[C@@H]2CCCC[C@@H]2N)nc1Nc1cncc(C2CC2)c1 [Example 006-167, 6-(((1R,2S)-2-aminocyclohexyl)amino)-2-((5-cycylopropylpyridin-3-yl)amino)-5-fluoronicotinamide]	< 10		< 65
NC(=O)c1cc(F)c(N[C@@H]2CCCC[C@@H]2N)nc1Nc1cncc(-n2cccn2)c1 [Example 006-168, 2-((5-(1H-pyrazol-1-yl)pyridin-3-yl)amino)-6-(((1R,2S)-2-aminocyclohexyl)amino)-5-fluoronicotinamide]	< 10	< 65	
CCCOc1cc(Nc2nc(N[C@@H]3CCCC[C@@H]3N)c(F)cc2C(N)=O)ccn1 [Example 006-169, 6-(((1R,2S)-2-aminocyclohexyl)amino)-5-fluoro-2-((2-propoxypyridin-4-yl)amino)nicotinamide]	< 10		< 65
CC(C)C[C@H](CN)Nc1nc(Nc2cncc(-n3cccn3)c2)c(C(N)=O)cc1F [Example 006-170, (R)-2-((5-(1H-pyrazol-1-yl)pyridin-3-yl)amino)-6-((1-amino-4-methylpentan-2-yl)amino)-5-fluoronicotinamide]	< 10		65 to 130
COc1ccc2cc(Nc3nc(N[C@@H]4CCCC[C@@H]4N)c(F)cc3C(N)=O)cnc2c1 [Example 006-172, 6-(((1R,2S)-2-aminocyclohexyl)amino)-5-fluoro-2-((7-methoxyquinolin-3-yl)amino)nicotinamide]	< 10	65 to 130	
COc1ccc2cc(Nc3nc(N[C@@H](CN)CC(C)C)c(F)cc3C(N)=O)cnc2c1 [Example 006-176, (R)-6-((1-amino-4-methylpentan-2-yl)amino)-5-fluoro-2-((7-methoxyquinolin-3-yl)amino)nicotinamide]	< 10		65 to 130
CC[C@@H](Nc1nc(Nc2ccc3ncccc3c2)c(C(N)=O)cc1F)[C@H](C)N [Example 006-178, 6-(((2S,3R)-2-aminopentan-3-yl)amino)-5-fluoro-2-((quinolin-6-yl)amino)nicotinamide]	< 10		< 65
CC(C)C[C@H](CN)Nc1nc(Nc2cncc(Cl)c2)c(C(N)=O)cc1F [Example 006-180, (R)-6-((1-amino-4-methylpentan-2-yl)amino)-2-((5-chloropyridin-3-yl)amino)-5-fluoronicotinamide]	< 10		130 to 200
NC[C@H](Nc1nc(Nc2ccc3ncccc3c2)c(C(N)=O)cc1F)C1CC1 [Example 006-186, (R)-6-((2-amino-1-cyclopropylethyl)amino)-5-fluoro-2-((quinolin-6-yl)amino)nicotinamide]	< 10		< 65
CC[C@@H](Nc1nc(Nc2cnc3cc(OC)ccc3c2)c(C(N)=O)cc1F)[C@H](C)N [Example 006-190, 6-(((2S,3R)-2-aminopentan-3-yl)amino)-5-fluoro-2-((7-methoxyquinolin-3-yl)amino)nicotinamide]	< 10		< 65
CC[C@H](N)[C@@H](C)Nc1nc(Nc2ccc3ncccc3c2)c(C(N)=O)cc1F [Example 006-198, 6-(((2R,3S)-3-aminopentan-2-yl)amino)-5-fluoro-2-((quinolin-6-yl)amino)nicotinamide]	< 10		65 to 130
CC[C@H](N)[C@@H](CC)Nc1nc(Nc2ccc3ncccc3c2)c(C(N)=O)cc1F [Example 006-199, 6-(((3R,4S)-4-aminohexan-3-yl)amino)-5-fluoro-2-((quinolin-6-yl)amino)nicotinamide]	< 10		65 to 130
CCC[C@@H](Nc1nc(Nc2ccc3ncccc3c2)c(C(N)=O)cc1F)[C@@H](N)CC [Example 006-200, 6-(((3S,4R)-3-aminoheptan-4-yl)amino)-5-fluoro-2-((quinolin-6-yl)amino)nicotinamide]	< 10		65 to 130
CC[C@H](N)[C@@H](CC(C)C)Nc1nc(Nc2ccc3ncccc3c2)c(C(N)=O)cc1F [Example 006-201, 6-(((4R,5S)-5-amino-2-methylheptan-4-yl)amino)-5-fluoro-2-((quinolin-6-yl)amino)nicotinamide]	< 10		130 to 200
CCC[C@@H](Nc1nc(Nc2cnc3cc(OC)ccc3c2)c(C(N)=O)cc1F)[C@H](C)N [Example 006-204, 6-(((2S,3R)-2-aminohexan-3-yl)amino)-5-fluoro-2-((7-methoxyquinolin-3-yl)amino)nicotinamide]	< 10		65 to 130

SMILES	IC50 [1] [nM]	IC50 (THP-1 cells; THP-1 cells) [nM]	IC50 (THP-1 cells; [2]) [nM]
COc1ccc2cc(Nc3nc(N[C@H](CC(C)C)[C@H](C)N)c(F)cc3C(N)=O)cnc2c1 [Example 006-206, 6-(((2S,3R)-2-amino-5-methylhexan-3-yl)amino)-5-fluoro-2-((7-methoxyquinolin-3-yl)amino)nicotinamide]	< 10		130 to 200
CCC[C@@H](Nc1nc(Nc2ccc3ncccc3c2)c(C(N)=O)cc1F)[C@H](C)N [Example 006-207, 6-(((2S,3R)-2-aminohexan-3-yl)amino)-5-fluoro-2-((quinolin-6-yl)amino)nicotinamide]	< 10		< 65
CCCC[C@@H](Nc1nc(Nc2ccc3ncccc3c2)c(C(N)=O)cc1F)[C@H](C)N [Example 006-208, 6-(((2S,3R)-2-aminoheptan-3-yl)amino)-5-fluoro-2-((quinolin-6-yl)amino)nicotinamide]	< 10		65 to 130
CC(C)C[C@@H](Nc1nc(Nc2ccc3ncccc3c2)c(C(N)=O)cc1F)[C@H](C)N [Example 006-209, 6-(((2S,3R)-2-amino-5-methylhexan-3-yl)amino)-5-fluoro-2-((quinolin-6-yl)amino)nicotinamide]	< 10		65 to 130
CC[C@@H](Nc1nc(Nc2ccc3c(cnn3C)c2)c(C(N)=O)cc1F)[C@H](C)N [Example 006-210, 6-(((2S,3R)-2-aminopentan-3-yl)amino)-5-fluoro-2-((1-methyl-1H-indazol-5-yl)amino)nicotinamide]	< 10		< 65
CC(C)C[C@H](CN)Nc1nc(Nc2ccc3nccnc3c2)c(C(N)=O)cc1F [Example 006-212, (R)-6-((1-amino-4-methylpentan-2-yl)amino)-5-fluoro-2-((quinoxalin-6-yl)amino)nicotinamide]	< 10		130 to 200
NC[C@@H](CC1CC1)Nc1nc(Nc2ccc3ncccc3c2)c(C(N)=O)cc1F [Example 006-214, (R)-6-((1-amino-3-cyclopropylpropan-2-yl)amino)-5-fluoro-2-((quinolin-6-yl)amino)nicotinamide]	< 10		65 to 130
COc1ccc2cc(Nc3nc(N[C@@H](CN)CC4CC4)c(F)cc3C(N)=O)cnc2c1 [Example 006-215, (R)-6-((1-amino-3-cyclopropylpropan-2-yl)amino)-5-fluoro-2-((7-methoxyquinolin-3-yl)amino)nicotinamide]	< 10		65 to 130
C[C@H](N)[C@@H](C)Nc1nc(Nc2cncc(Cl)c2)c(C(N)=O)cc1F [Example 006-216, 6-(((2R,3S)-3-aminobutan-2-yl)amino)-2-((5-chloropyridin-3-yl)amino)-5-fluoronicotinamide]	10 to 50		65 to 130
C[C@H](N)[C@@H](CC1CC1)Nc1nc(Nc2ccc3ncccc3c2)c(C(N)=O)cc1F [Example 006-217, 6-(((2R,3S)-3-amino-1-cyclopropylbutan-2-yl)amino)-5-fluoro-2-((quinolin-6-yl)amino)nicotinamide]	< 10		< 65
CC[C@@H](Nc1nc(Nc2cncc(-n3cccn3)c2)c(C(N)=O)cc1F)[C@H](C)N [Example 006-218, 2-((5-(1H-pyrazol-1-yl)pyridin-3-yl)amino)-6-(((2S,3R)-2-aminopentan-3-yl)amino)-5-fluoronicotinamide]	< 10		65 to 130
CCC[C@@H](Nc1nc(Nc2ccnc(-c3ccco3)c2)c(C(N)=O)cc1F)[C@H](C)N [Example 006-220, 6-(((2S,3R)-2-aminohexan-3-yl)amino)-5-fluoro-2-((2-(furan-2-yl)pyridin-4-yl)amino)nicotinamide]	< 10		< 65
CCC[C@@H](Nc1nc(Nc2ccnc(-n3nccn3)c2)c(C(N)=O)cc1F)[C@H](C)N [Example 006-221, 2-((2-(2H-1,2,3-triazol-2-yl)pyridin-4-yl)amino)-6-(((2S,3R)-2-aminohexan-3-yl)amino)-5-fluoronicotinamide]	< 10		65 to 130
CCC[C@@H](Nc1nc(Nc2cncc(-c3ccccc3F)c2)c(C(N)=O)cc1F)[C@H](C)N [Example 006-222, 6-(((2S,3R)-2-aminohexan-3-yl)amino)-5-fluoro-2-((5-(2-fluorophenyl)pyridin-3-yl)amino)nicotinamide]	< 10		65 to 130
CCC[C@@H](Nc1nc(Nc2cncc(C3CC3)c2)c(C(N)=O)cc1F)[C@H](C)N [Example 006-223, 6-(((2S,3R)-2-aminohexan-3-yl)amino)-2-((5-cyclopropylpyridin-3-yl)amino)-5-fluoronicotinamide]	< 10		< 65
